From article PMC4789767, “Application of linker technique to trap transiently interacting protein complexes for structural studies” (Journal of Biological Methods, 2016)

What was measured:
CaM = assay: ITC: binding of MBR (IQ motif) peptides to CaM; conditions: VP-ITC, 25°C, 10 µM CaM in cell, 150 µM IQ peptide in syringe, Buffer A: 20 mM imidazole pH 8.0, 100 mM NaCl, 2 mM EGTA, in words, Fig. 3B vs 3A
Description: Different lengths of Nm and Ng IQ motif peptides were commercially synthesized and obtained from GL BiochemLtd (Shanghai, China). Stock solutions of 1 mM of Nm/Ng IQ peptides were prepared by dissolving the appropriate amount of peptide in 20 mM imidazole pH 8.0, 100 mM NaCl and 2 mM EGTA (Buffer A). After mixing, the peptide stock solutions were stored at 4°C to ensure complete peptide solubility. The choice of buffer is based on obtaining maximum solubility of the peptides. NOTE: Synthetically derived peptides should be verified for solubility when dissolved in a buffer of interest. Sometimes preparing high concentrations of peptide stock solution may result in precipitation. Lower concentrations of stock solutions can be prepared to avoid this problem.
• 1. ITC assay: Identification of MBR (minimum binding region) from Nm and Ng. • 1.1. Wildtype (WT) CaM, Nm and Ng are purified, as described previously. • 1.2. Prepare 10 µM of full length Nm/Ng and 150 µM of CaM in Buffer A (Recipes). The Schematic representation of the ITC experimental setup is depicted in Figure 2A. • 1.3. Degas all solutions for 10–20 min using a vacuum pump and centrifuge in order to avoid bubble formation in the sample cell during the experiment. • 1.4. […]

C-lobe of CaM = conditions: previous findings; ref [34]-[36]; cited from earlier work
Description: The Gly-linker strategy has been previously used to stabilize various protein complexes for structural studies. We have adopted this procedure to determine the crystal structure of CaM in complex with two of its intrinsically unstructured binding partners, Nm and Ng, and further validated the findings in vitro and in vivo [19]. We identified the MBR of Nm and Ng that interacted with CaM using ITC experiments using various peptide lengths of Nm/Ng. […] We employed known s ...

Substance | binding with CaM compared with full length Nm (CaM) | interaction site on CaM (C-lobe of CaM)
Minimum Binding Region (MBR) peptide of Nm: Optimized minimum binding region peptide (IQ motif) of Neuromodulin; commercially synthesized | mimics full length Nm in terms of binding with CaM | –
Ng: Full-length Neurogranin (accession no NP_071312), intrinsically disordered neuron-specific substrate protein | – | interacted with the C-lobe of CaM
Nm: Full-length Neuromodulin (accession no NP_032109), intrinsically disordered neuron-specific substrate protein | – | interacted with the C-lobe of CaM
